From patent publication US7709223B2, “Method for detecting bacteria with chromogenic substrates for β-D-ribofuranosidase” (priority 2001, dated 2010)
Structures can show the parent of a compound that is named as a salt.

How the values were obtained:
[1] = test system: Bacillus licusniforms; test: Hydrolysis on Columbia agar with ferric ammonium citrate; type: cell-based; details: Bacillus licusniforms NCIMB 9375
Experimental: (§1) The chromogenic β-D-ribofuranoside substrate was added to Columbia agar at a substrate concentration of 300 mg/l. Ferric ammonium citrate was included at 500 mg/l. All ingredients were autoclaved at 116° C. for 20 minutes to ensure sterilisation. Agar plates were then prepared in 90 mm petri dishes. The substrate caused a yellow colouration of the agar.
(§2) For each strain tested, a bacterial suspension was prepared in sterile deionised water at an inoculum of approximately 1.5×10^8 colony forming units per ml. This was achieved using a densitometer. 1 μl of each bacterial suspension was then inoculated onto each plate using a multipoint inoculator. Strains were inoculated in parallel onto Columbia agar containing ferric ammonium citrate with no substrate (negative control).
(§3) After 18 hours incubation, strains were examined visually for the presence of colour. Any strains producing a black colouration on substrate containing media but not on the negative control plates were deemed to be hydrolysing the substrate.

[2] = test system: Haemolytic streptococcus C; test: as above; type: cell-based
Experimental: as §1, §2, §3

Measured: β-Ribofuranoside (hydrolysis)

O=c1cc(-c2ccc(OC3OC(CO)C(O)C3O)c(O)c2)oc2ccccc12 [DHF-riboside, 3′,4′-Dihydroxyflavone-4′-β-D-ribofuranoside sodium salt]
−: [1] | [2]; Reference No. 1 | [2]; Reference No. 67736 | [2]; Reference No. 68350
